Target: T1, AXL (fusion protein of amino acids 464-885 of the intracellular domain of human AXL with glutathione transferase) (Homo sapiens, UniProt P30530)
T1 sequence (P30530 464-885 isoform P30530-2): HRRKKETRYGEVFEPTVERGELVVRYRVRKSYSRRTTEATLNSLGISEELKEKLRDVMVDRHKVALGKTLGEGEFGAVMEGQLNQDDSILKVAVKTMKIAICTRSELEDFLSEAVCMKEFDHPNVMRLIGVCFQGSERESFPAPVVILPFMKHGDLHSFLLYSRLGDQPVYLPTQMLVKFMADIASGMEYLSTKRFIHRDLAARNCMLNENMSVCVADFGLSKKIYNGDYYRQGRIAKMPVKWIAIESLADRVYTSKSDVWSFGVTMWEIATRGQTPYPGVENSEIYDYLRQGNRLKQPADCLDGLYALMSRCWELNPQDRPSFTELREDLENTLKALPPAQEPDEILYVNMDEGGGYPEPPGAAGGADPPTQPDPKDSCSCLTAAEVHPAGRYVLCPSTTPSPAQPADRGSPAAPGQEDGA
Test: Cell-Free Axl Kinase Inhibitory Activity
Description: Next, the test compound was diluted with DMSO, and 1 μl of this diluted solution was added to each well.
Five microliters of this solution were added to each well to initiate a kinase reaction. The plate was incubated at 28° C. for 1.5 hours, and 40 μl of a termination buffer (100 mM HEPES (pH 7.4), 0.015% Brij-35, 40 mM EDTA, 0.1% Coating Reagent 3) was added to each well to terminate the reaction.
The substrate peptide and the phosphorylated peptide in the reaction solution were separated and quantified by EZ Reader II (Caliper Life Sciences).
IC50 was determined from inhibition data for 12 test compound concentrations by nonlinear regression (four-parameter logistic regression) using the following formula.

IC50 [nM] | Compound
0.1 to 1 | COc1cc(-c2cnc(N)c(-c3ccc(NC(=O)c4cn(CC(F)(F)F)cc(-c5ccc(F)cc5)c4=O)cc3)c2)ccc1OCCN1CCCC1 [Example 39, N-[4-(2-Amino-5-{3-methoxy-4-[2-(pyrrolidin-1-yl)ethoxy]phenyl}pyridin-3-yl)phenyl]-5-(4-fluorophenyl)-4-oxo-1-(2,2,2-trifluoroethyl)-1,4-dihydropyridine-3-carboxamide]
0.1 to 1 | COc1cc(-c2cnc(N)c(-c3ccc(NC(=O)c4cn(CCF)cc(-c5ccccc5)c4=O)cc3)c2)ccc1OCCN1CCCC1 [Example 40, N-(4-{2-Amino-5-[3-methoxy-4-(2-pyrrolidin-1-ylethoxy)phenyl]pyridin-3-yl}phenyl)-1-(2-fluoroethyl)-4-oxo-5-phenyl-1,4-dihydropyridine-3-carboxamide]
1 to 10 | COc1cc(-c2cnc(N)c(-c3ccc(NC(=O)c4cn(Cc5ccccc5)cc(-c5ccc(F)cc5)c4=O)cc3)c2)ccc1OC[C@H]1COCCO1 [Example 41, N-[4-(2-Amino-5-{4-[(2R)-1,4-dioxan-2-ylmethoxy]-3-methoxyphenyl}pyridin-3-yl)phenyl]-1-benzyl-5-(4-fluorophenyl)-4-oxo-1,4-dihydropyridine-3-carboxamide]
0.1 to 1 | COc1cc(-c2cnc(N)c(-c3ccc(NC(=O)c4cn(CC(F)(F)F)cc(-c5ccc(F)cc5)c4=O)cc3)c2)ccc1OC[C@H]1COCCO1 [Example 42, N-[4-(2-Amino-5-{4-[(2R)-1,4-dioxan-2-ylmethoxy]-3-methoxyphenyl}pyridin-3-yl)phenyl]-5-(4-fluorophenyl)-4-oxo-1-(2,2,2-trifluoroethyl)-1,4-dihydropyridine-3-carboxamide]
1 to 10 | COc1cc(-c2cnc(N)c(-c3ccc(NC(=O)c4cn(CCF)cc(-c5ccc(F)cc5)c4=O)cc3)c2)ccc1OC[C@H]1COCCO1 [Example 43, N-[4-(2-Amino-5-{4-[(2R)-1,4-dioxan-2-ylmethoxy]-3-methoxyphenyl}pyridin-3-yl)phenyl]-1-(2-fluoroethyl)-5-(4-fluorophenyl)-4-oxo-1,4-dihydropyridine-3-carboxamide]
1 to 10 | COc1cc(-c2cnc(N)c(-c3ccc(NC(=O)c4cn(CCF)cc(-c5ccccc5)c4=O)cc3)c2)ccc1OC[C@H]1COCCO1 [Example 44, N-[4-(2-Amino-5-{4-[(2R)-1,4-dioxan-2-ylmethoxy]-3-methoxyphenyl}pyridin-3-yl)phenyl]-1-(2-fluoroethyl)-4-oxo-5-phenyl-1,4-dihydropyridine-3-carboxamide]
1 to 10 | CCn1cc(C(=O)Nc2ccc(-c3cc(-c4ccc(OC[C@H]5COCCO5)c(OC)c4)cnc3N)cc2)c(=O)c(-c2ccccc2)c1 [Example 45, N-[4-(2-Amino-5-{4-[(2R)-1,4-dioxan-2-ylmethoxy]-3-methoxyphenyl}pyridin-3-yl)phenyl]-1-ethyl-4-oxo-5-phenyl-1,4-dihydropyridine-3-carboxamide]
1 to 10 | CCn1cc(C(=O)Nc2ccc(-c3cc(-c4ccc(OC[C@H]5COCCO5)c(OC)c4)cnc3N)cc2)c(=O)c(-c2ccc(F)cc2)c1 [Example 46, N-[4-(2-Amino-5-{4-[(2R)-1,4-dioxan-2-ylmethoxy]-3-methoxyphenyl}pyridin-3-yl)phenyl]-1-ethyl-5-(4-fluorophenyl)-4-oxo-1,4-dihydropyridine-3-carboxamide]
1 to 10 | CCn1cc(C(=O)Nc2ccc(-c3cc(-c4cnn(C)c4)cnc3N)cc2)c(=O)c(-c2ccc(F)cc2)c1 [Example 47, N-{4-[2-Amino-5-(1-methyl-1H-pyrazol-4-yl)pyridin-3-yl]phenyl}-1-ethyl-5-(4-fluorophenyl)-4-oxo-1,4-dihydropyridine-3-carboxamide]
1 to 10 | Cn1cc(-c2cnc(N)c(-c3ccc(NC(=O)c4cn(CCF)cc(-c5ccc(F)cc5)c4=O)cc3)c2)cn1 [Example 48, N-{4-[2-Amino-5-(1-methyl-1H-pyrazol-4-yl)pyridin-3-yl]phenyl}-1-(2-fluoroethyl)-5-(4-fluorophenyl)-4-oxo-1,4-dihydropyridine-3-carboxamide]
